Experimental data: patent publication US10390536B2, “Methods, compounds and compositions for repelling insects and/or arachnids” (National Center for Scientific Research “Demokritos”, priority 2013, dated 2019)
Read-outs that look alike come from different tables or passages of the source.

What was measured:
Type in all cases: in vivo
[1] = tested on: Culex spp.; assay: experimental hut field trial of spatial repellence, Culex; details: single compound, 1 ml in open vial in MM-X trap
Experimental: (§1) To test the effects of repellent compounds or compositions disclosed herein on mosquitoes in a controlled environment resembling actual living quarters and conditions, field trials with standardized experimental huts were conducted at Kainji Dam in North Central Nigeria.
(§2) Six such huts were built in a straight line, and the distance between huts was 11 meters. These huts follow a traditional square design, the walls are built with concrete blocks that are subsequently plastered with cement, each wall has a window. The ceiling is plywood and the roof is thatched with eaves that are open, thereby allowing free flow of air into and out of the hut, and thus entry and exit of mosquitoes. There is a door for entry and exit. Two opposing sides of each hut have window exit traps and screened verandas to capture mosquitoes leaving via the windows or eaves. Each hut is raised off the ground on a concrete platform and surrounded by a moat filled with water in order to prevent ants from entering. Each hut is fitted with a mattress and an untreated bed net for sleepers. These huts are similar in design and concept to those used previously elsewhere for studying mosquito behavior and measuring the efficacy of various mosquito control products or intervention methods in Tanzania and Gambia. For design parameters refer to WHOPES 2005. The huts are adjacent to a tributary of the River Niger at a distance of 10 km from the Kainji Dam site and face rice fields known to harbor permanent mosquito breeding sites. The mosquitoes endemic to this area of Nigeria are highly endophillic, that is, they rest mainly indoors.
(§3) Human volunteers that participated as sleepers in this field trial were provided with anti-malarial chemical prophylaxis on a weekly basis, and the protocols used herein were reviewed and approved by the Research Ethics Review Committee of the Nigerian Institute of Medical Research. Six male adult volunteers, aged between 25 and 35 years old, were recruited to sleep in the huts described above. Sleepers were allocated to huts randomly for each series of trials, and this randomization process occurred nightly. The volunteers entered the huts by 21:00 each night and remained inside the huts until 06:30 the following morning. Each morning, the windows were closed and the exit traps blocked with a piece of cloth to prevent mosquitoes that entered from exiting. The traps were then put in a freezer at −20° C. to kill all the mosquitoes before being emptied for identification. By means of a sucking aspirator the verandas and rooms were visually searched for live mosquitoes and any insects found were collected in labelled cups. A 10-minute search was conducted for each hut (room and veranda traps). The exit traps were emptied into a labelled cup and all the mosquitoes placed in the freezer at −20° C. for about 30 minutes before morphological identification.
(§4) The Mosquito Magnet trap Model-X (MM-X trap made by the firm formerly known as American Biophysics (ABC), USA) is a 12V battery operated counter-flow trap that was used as the repellent dispersing device to evaluate the efficacy of repellent compounds or compositions disclosed herein. Four compounds, carvacrol, cumin alcohol, ethyl cinnamate, and butyl cinnamate, were evaluated in comparison to DEET as a nonproprietary conventional repellent in a first experiment. The chemical compounds were provided in liquid form: carvacrol (98%), butyl cinnamate (98%), ethyl cinnamate (98%), cumin alcohol (97%) and DEET (97%). […]

[2] = tested on: Anopheles gambiae (Giles) ss strain 16CSS female mosquitoes; assay: warm body repellence assay (mosquito landings); details: for repellent activity in the warm body assay (in words): candidate compounds, initially 1.0-5.0 μg/cm^2 (about 5-31.5 nmole/cm^2)
Experimental: To test the behavior of female mosquitoes to an essential oil containing OBP binding components, a previously described repellence assay [Kröber et al. (2010). An In Vitro Assay for Testing Mosquito Repellents Employing a Warm Body and Carbon Dioxide as a Behavioral Activator. Journal of the American Mosquito Control Association 26(4) 381-386] was conducted that measures the number of mosquito landings on a warm surface onto which an essential oil containing at least one candidate compound was applied.
To conduct a repellency assay, a selected essential oil or ethanol negative control was applied to a warm body at a dose of about 3.8 μg/cm^2 and allowed to dry for 40 seconds in order to allow evaporation of the solvent before introduction into the test cage with mosquitoes. As positive control for repellence, DEET dissolved in ethanol was applied to the warm body at the same dose. The treated warm body in conjunction with a pulse of carbon dioxide was introduced into the test cage containing fifty Anopheles gambiae (Giles) ss strain 16CSS female mosquitoes that were 4-11 days old and the number of mosquito landings on the warm body occurring within a 2-minute period was counted. Each candidate compound was tested in five different cages (i.e., 250 female mosquitoes) in a randomized design, and the ethanol control and up to four candidate compounds were tested in each cage. Raw data on numbers of landings by mosquitoes were analyzed using a linear mixed model accounting for treatment, experimental day, the individual cage, the number of females per cage and the level of the carbon dioxide pulse in ppm using R (R Development Core Team, 2010) and the packages LME4 (Bates and Maechler, Ime4: Linear mixed-effects models using {S4} classes.{R} package version 0.999375-32, 2009) and NLME (Pinheiro et al, nlme: Linear and Nonlinear Mixed Effects Models, 2010; the R Development Core Team, R: A Language and Environment for Statistical Computing, 2010). Repellent values were calculated from counted landings on treatments versus the overall landings on pooled controls.
To test the behavior of female mosquitoes to a candidate compound identified in Example 5, behavioral assays were made using the identified compounds. The repellent assay was performed as described in Example 3, except that candidate compounds were dissolved in ethanol and tested initially at doses between 1.0 and 5.0 μg/cm^2 (about 5-31.5 nmole/cm^2) and, whenever necessary, at lower and/or higher doses as well. Besides the compounds identified in Example 5, compounds related to these were also tested including ethyl-cinnamate and butyl-cinnamate (Table 4).
To test the behavior of female mosquitoes to various combinations of candidate compounds identified in Example 6, repellence assays were made as in Example 3. These repellent assays were made to compare the effectiveness of the strongest repellent compounds identified in Example 6, including, without limitation, carvacrol, ethyl cinnamate, butyl cinnamate, and cumin alcohol with that of DEET.
The doses tested were 2, 4, 6 10 and 20 nmol/cm^2 for the single compounds. The binary 50:50 mixtures were tested at 2, 6, 10 and 20 nmol/cm^2, with each compound making up half the amount tested, so that, for example, the 2 nmol/cm^2 concentration in column A+B represents 1 nmol/cm^2 of A and 1 nmol/cm^2 of B in a binary mixture. DEET was also tested at 25 nmol (top response) and carvacrol was tested at the additional dose of 2.5 nmol (second from left within its column). As an indication, DEET at 20 nmol/cm^2=3.8 μg/cm^2. Mosquitoes were activated using a puff of CO2 from a gas tank upon introduction of the warm body into the test cage containing 50±5 A. gambiae females and mosquito landings were counted for 2 minutes. Each treatment (dose) was tested using five test cages, i.e. on a total of 250 female A. gambiae. […]

[3] = tested on: Anopheles gambiae s.l.; assay: experimental hut field trial of spatial repellence, Anopheles; details: single compound, 1 ml in open vial in MM-X trap
Experimental: as §1, §2, §3, §4

[4] = 2 nmol (per cm^2, total for mixtures, 50:50)
[5] = 4 nmol (per cm^2, total for mixtures, 50:50)
[6] = 6 nmol (per cm^2, total for mixtures, 50:50)
[7] = 10 nmol (per cm^2, total for mixtures, 50:50)
[8] = Anopheles gambiae, 2 min, read-out: Median Repellency (%)
[9] = 20 nmol (per cm^2, total for mixtures, 50:50)

Structure (SMILES): Cc1ccc(C(C)C)cc1O [carvacrol, 5-isopropyl-2-methylphenol]
- mosquito counts on the inside walls of the huts (in words) [1]: reduced mosquito counts on the inside walls
- Median repellence % [2, 4]: 13%
- Median repellence % [2, 5]: 55%
- Median repellence % [2, 6]: 40%
- Median repellence % [2, 7]: 59%
- Median repellence % ([2]; 25 nmol (per cm^2)): 93%
- median repellency (%) at 25 nmol/cm2 [2, 8]: 93.3%
- repellent activity in the warm body assay (in words) [2]: activity comparable to DEET
- repellent activity (in words) ([2]; total concentration 2 nmole/cm^2): retained repellent activity
- mosquito counts on the inside walls of the huts (in words) [3]: reduced mosquito counts on the inside walls

Structure (SMILES): CCN(CC)C(=O)c1cccc(C)c1 [DEET, N,N-diethyl-3-methylbenzamide, reference compound]
- mosquito counts on the inside walls of the huts (in words) [1]: reduced mosquito counts on the inside walls
- Median repellence % [2, 4]: 2%
- Median repellence % [2, 5]: 41%
- Median repellence % [2, 6]: 80%
- Median repellence % [2, 7]: 96%
- Median repellence % [2, 9]: 98%
- Median repellence % ([2]; 25 nmol (per cm^2)): 100%
- median repellency (%) at 20 nmol/cm2 ([2]; Anopheles gambiae, 2 min, 20 nmole per cm^2, read-out: Median Repellency (%)): 98.5%
- mosquito counts on the inside walls of the huts (in words) [3]: reduced mosquito counts on the inside walls

Structure (SMILES): CC(C)c1ccc(CO)cc1 [cumin alcohol]
- spatial repellent effect, induced exophily (in words) ([1]; per night): significantly lower than that of DEET
- Median repellence % [2, 4]: −4%
- Median repellence % [2, 5]: 38%
- Median repellence % [2, 6]: 46%
- Median repellence % [2, 7]: 53%
- Median repellence % [2, 9]: 93%
- median repellency (%) at 20 nmol/cm2 [2, 8]: 92.3%
- repellent activity in the warm body assay (in words) [2]: activity comparable to DEET
- spatial repellent effect, induced exophily (in words) ([3]; per night): significantly lower than that of DEET
